IC50 data for 14 compounds are collected here from patent US20240360126A1, “PYRAZOLO[3,4-B]PYRIDINE COMPOUNDS FOR THE TREATMENT OF AUTOIMMUNE DISEASE” (Hoffmann-La Roche Inc., priority 2021, published 2024).

Each structure is given as a SMILES string. pIC50: −log10 of the molar value.

In the test the target is T1, human TLR8 (Homo sapiens, UniProt Q9NR97).
T1 construct: host or cells: HEK293 (HEK-Blue hTLR8)
T1 sequence (Q9NR97 27-1041): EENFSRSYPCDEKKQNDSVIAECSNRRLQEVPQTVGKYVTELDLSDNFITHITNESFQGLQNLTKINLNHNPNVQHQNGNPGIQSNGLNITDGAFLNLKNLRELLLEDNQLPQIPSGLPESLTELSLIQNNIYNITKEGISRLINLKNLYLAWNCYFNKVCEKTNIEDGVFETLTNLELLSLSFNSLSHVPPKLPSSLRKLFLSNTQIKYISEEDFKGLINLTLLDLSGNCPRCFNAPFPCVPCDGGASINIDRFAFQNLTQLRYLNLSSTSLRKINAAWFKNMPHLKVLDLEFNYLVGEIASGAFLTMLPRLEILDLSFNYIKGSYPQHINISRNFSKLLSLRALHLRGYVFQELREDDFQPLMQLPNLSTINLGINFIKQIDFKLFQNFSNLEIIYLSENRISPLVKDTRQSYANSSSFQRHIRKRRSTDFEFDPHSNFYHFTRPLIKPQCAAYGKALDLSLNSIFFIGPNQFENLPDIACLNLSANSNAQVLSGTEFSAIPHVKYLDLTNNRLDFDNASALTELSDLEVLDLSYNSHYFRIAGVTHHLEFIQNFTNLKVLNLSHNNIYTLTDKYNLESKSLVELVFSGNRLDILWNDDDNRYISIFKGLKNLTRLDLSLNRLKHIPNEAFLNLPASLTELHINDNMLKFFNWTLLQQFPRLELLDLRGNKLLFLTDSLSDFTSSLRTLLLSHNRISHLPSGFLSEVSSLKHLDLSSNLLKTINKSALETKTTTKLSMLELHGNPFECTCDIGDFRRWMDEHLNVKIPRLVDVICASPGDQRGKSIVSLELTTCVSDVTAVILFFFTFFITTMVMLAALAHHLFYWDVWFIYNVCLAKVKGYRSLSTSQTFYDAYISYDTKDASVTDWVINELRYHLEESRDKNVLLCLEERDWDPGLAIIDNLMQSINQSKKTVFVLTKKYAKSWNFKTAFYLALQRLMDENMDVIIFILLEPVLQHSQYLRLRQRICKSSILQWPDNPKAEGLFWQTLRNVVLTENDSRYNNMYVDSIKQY
Description: HEK293-Blue-hTLR-8 cells assay. The class given is cell-based. As to conditions: HEK293-Blue-hTLR8 cells, R848 stimulation, 20 hrs; read-out: HEK/hTLR8 IC50. The source says:
A stable HEK293-Blue-hTLR-8 cell line was purchased from InvivoGen (Cat. #: hkb-htlr8, San Diego, California, USA). These cells were originally designed for studying the stimulation of human TLR8 by monitoring the activation of NF-κB. A SEAP (secreted embryonic alkaline phosphatase) reporter gene was placed under the control of the IFN-β minimal promoter fused to five NF-κB and AP-1-binding sites. The SEAP was induced by activating NF-κB and AP-1 via stimulating HEK-Blue hTLR8 cells with TLR8 ligands. Therefore the reporter expression was declined by TLR8 antagonist under the stimulation of a ligand, such as R848, for incubation of 20 hrs. The cell culture supernatant SEAP reporter activity was determined using QUANTT-BlueTv™ kit (Cat. #: rep-qbl, Invivogen, San Diego, Ca, USA) at a wavelength of 640 nm, a detection medium that turns purple or blue in the presence of alkaline phosphatase.
HEK293-Blue-hTLR8 cells were incubated at a density of 250,000˜450,000 cells/mL in a volume of 170 μL in a 96-well plate in Dulbecco's Modified Eagle's medium (DMEM) containing 4.5 g/L glucose, 50 U/mi penicillin, […] streptomycin, […], 2 mM L-glutamine, 10% (v/v) heat-inactivated fetal bovine serum with addition of 20 μL test compound in a serial dilution in the presence of final DMSO at 1% and 10 μL of 60 μM R848 in above DMEM, perform incubation under 37° C. in a CO2 incubator for 20 hrs. Then 20 μL of the supernatant from each well was incubated with 180 μL Quanti-blue substrate solution at 37° C. for 2 hrs and the absorbance was read at 620-655 nm using a spectrophotometer. The signaling pathway that TLR8 activation leads to downstream NF-κB activation has been widely accepted, and therefore similar reporter assay was modified for evaluating TLR8 antagonist.

As to `Cc1cc(N2CC[C@@H](c3ncc(N4CCOC[C@@H](N)C4)cc3C)[C@H](C)C2)c2cnn(C)c2n1` [Example 28, (6S)-4-[6-[(3S,4R)-1-(1,6-dimethylpyrazolo[3,4-b]pyridin-4-yl)-3-methyl-4-piperidyl]-5-methyl-3-pyridyl]-1,4-oxazepan-6-amine], the pIC50 is 8.70.
The same measure for `COC[C@H]1CN(c2cnc([C@@H]3CCN(c4cc(C)nc5c4cnn5C)C[C@H]3C)c(C)c2)CCN1` [Example 29, 4-[(3S,4R)-4-[5-[(3R)-3-(methoxymethyl)piperazin-1-yl]-3-methyl-2-pyridyl]-3-methyl-1-piperidyl]-1,6-dimethyl-pyrazolo[3,4-b]pyridine]: 8.10.
With `Cc1cc(N2CC[C@@H](c3ncc(N4CC[C@@H](N)[C@H](F)C4)cc3C)[C@H](C)C2)c2cnn(C)c2n1` [Example 31, (3R,4R)-1-[6-[(3S,4R)-1-(1,6-dimethylpyrazolo[3,4-b]pyridin-4-yl)-3-methyl-4-piperidyl]-5-methyl-3-pyridyl]-3-fluoro-piperidin-4-amine] the figure was 8.05; with `Cc1cc(N2CC[C@@H](c3ncc(N4CC(C)(N)C4)cc3C)[C@H](C)C2)c2cnn(C)c2n1` [Example 32, 1-[6-[(3S,4R)-1-(1,6-dimethylpyrazolo[3,4-b]pyridin-4-yl)-3-methyl-4-piperidyl]-5-methyl-3-pyridyl]-3-methyl-azetidin-3-amine], 7.82.
With `Cc1cc(N2CC[C@@H](c3ncc(N4C[C@H]5NCCO[C@@H]5C4)cc3C)[C@H](C)C2)c2cnn(C)c2n1` [Example 33, (4aR,7aR)-6-[6-[(3S,4R)-1-(1,6-dimethylpyrazolo[3,4-b]pyridin-4-yl)-3-methyl-4-piperidyl]-5-methyl-3-pyridyl]-3,4,4a,5,7,7a-hexahydro-2H-pyrrolo[3,4-b][1,4]oxazine] the figure was 8.52; with `Cc1cc(N2CC[C@@H](c3ccc(N4CCNCC4)cn3)[C@H](C)C2)c2cnn(C)c2n1` [Example 34, 1,6-dimethyl-4-[(3S,4R)-3-methyl-4-(5-piperazin-1-yl-2-pyridyl)-1-piperidyl]pyrazolo[3,4-b]pyridine], 7.96.
Regarding `Cc1cc(N2CC[C@H](c3ccc(N4CCNCC4)cn3)[C@@H](C)C2)c2cnn(C)c2n1` [Example 35, 1,6-dimethyl-4-[(3R,4S)-3-methyl-4-(5-piperazin-1-yl-2-pyridyl)-1-piperidyl]pyrazolo[3,4-b]pyridine], the pIC50 was 8.05.
Turning to `CO[C@@H]1CN(c2ccc([C@H]3CCN(c4cc(C)nc5c4cnn5C)C[C@@H]3C)nc2)C[C@H]1N` [Example 36, (3R,4R)-1-[6-[(3R,4S)-1-(1,6-dimethylpyrazolo[3,4-b]pyridin-4-yl)-3-methyl-4-piperidyl]-3-pyridyl]-4-methoxy-pyrrolidin-3-amine], the pIC50 is 7.68.
The same measure for `COC[C@H]1CN(c2ccc([C@H]3CCN(c4cc(C)nc5c4cnn5C)C[C@@H]3C)nc2)CCN1` [Example 37, 4-[(3R,4S)-4-[5-[(3R)-3-(methoxymethyl)piperazin-1-yl]-2-pyridyl]-3-methyl-1-piperidyl]-1,6-dimethyl-pyrazolo[3,4-b]pyridine]: 7.89.
The same measure for `Cc1cc(N2CC[C@H](c3ccc(N4CC5(CNCCO5)C4)cn3)[C@@H](C)C2)c2cnn(C)c2n1` [Example 38, 2-[6-[(3R,4S)-1-(1,6-dimethylpyrazolo[3,4-b]pyridin-4-yl)-3-methyl-4-piperidyl]-3-pyridyl]-5-oxa-2,8-diazaspiro[3.5]nonane]: 7.96; for `CO[C@H]1CN(c2ccc([C@H]3CCN(c4cc(C)nc5c4cnn5C)C[C@@H]3C)nc2)CC[C@@H]1N` [Example 39, (3S,4S)-1-[6-[(3R,4S)-1-(1,6-dimethylpyrazolo[3,4-b]pyridin-4-yl)-3-methyl-4-piperidyl]-3-pyridyl]-3-methoxy-piperidin-4-amine]: 8.00; for `Cc1cc(N2CC[C@H](c3ccc(N4CCOC[C@@H](N)C4)cn3)[C@@H](C)C2)c2cnn(C)c2n1` [Example 40, (6S)-4-[6-[(3R,4S)-1-(1,6-dimethylpyrazolo[3,4-b]pyridin-4-yl)-3-methyl-4-piperidyl]-3-pyridyl]-1,4-oxazepan-6-amine]: 8.15.
With `Cc1cc(N2CC[C@H](c3ccc(N4CC[C@@H](N)[C@H](F)C4)cn3)[C@@H](C)C2)c2cnn(C)c2n1` [Example 41, (3R,4R)-1-[6-[(3R,4S)-1-(1,6-dimethylpyrazolo[3,4-b]pyridin-4-yl)-3-methyl-4-piperidyl]-3-pyridyl]-3-fluoro-piperidin-4-amine] the figure was 8.00.
With `Cc1cc(N2CC[C@H](c3ccc(N4CC(C)(N)C4)cn3)[C@@H](C)C2)c2cnn(C)c2n1` [Example 43, 1-[6-[(3R,4S)-1-(1,6-dimethylpyrazolo[3,4-b]pyridin-4-yl)-3-methyl-4-piperidyl]-3-pyridyl]-3-methyl-azetidin-3-amine], the pIC50 is 8.22.
